Test results as given in ChEMBL document CHEMBL5528001, “Synthetic product-based approach toward potential antileishmanial drug development” (Eur J Med Chem, 2024).
pEC50, pIC50: −log10 of the molar value. ≈ marks a conversion by molar mass, not a printed value. Values belong to the molecule of their own block, whether it stands above or below them.

What was measured:
Leishmania major [1] = assay: Antileishmanial activity against Leishmania major amastigotes assessed as reduction in parasite viability measured for 72 hrs by Giemsa-staining based microscopic analysis; format: functional, organism-based
Leishmania major [2] = assay: Antileishmanial activity against Leishmania major promastigotes assessed as reduction in parasite viability measured after 72 hrs by Giemsa-staining based microscopic analysis; format: functional, organism-based
Leishmania aethiopica = assay: Antileishmanial activity against Leishmania aethiopica amastigotes assessed as inhibition of parasite growth measured after 24 hrs by Alamar blue based analysis; format: functional, organism-based
Leishmania amazonensis [3] = assay: Antileishmanial activity against Leishmania amazonensis IFLA/BR/1967/PH8 amastigotes infected in murine peritoneal macrophages incubated for 24 hrs by Giemsa staining based analysis; format: functional, organism-based; conditions: IFLA/BR/1967/PH8, 24 h
Leishmania infantum [4] = assay: Antileishmanial activity against Leishmania infantum MHOM/BR/1972/BH46 amastigotes assessed as reduction in cell viability measured for 48 hrs by PI staining based flow cytometry analysis; format: functional, organism-based; conditions: MHOM/BR/1972/BH46, 48 h
Leishmania infantum [5] = assay: Antileishmanial activity against Leishmania infantum MHOM/BR/1972/BH46 promastigotes assessed as reduction in parasite viability measured for 48 hrs by PI staining based flow cytometry analysis; format: functional, organism-based; conditions: MHOM/BR/1972/BH46, 48 h
Leishmania donovani [6] = assay: Antileishmanial activity against Leishmania donovani amastigotes; format: functional, organism-based
Leishmania donovani [7] = assay: Antileishmanial activity against Leishmania donovani amastigotes assessed as parasite growth inhibition incubated for 72 hrs by MTS assay; format: functional, organism-based
[8] = Cytotoxicity against HEK293 cells assessed as reduction in cell viability incubated for 6 days by CellTiter-Glo luminescent cell viability assay; format: toxicity, cell-based; conditions: human
HepG2 = assay: Antiproliferative activity against human HepG2 cells assessed as reduction in cell viability incubated for 72 hrs by MTT assay; format: functional, cell-based; conditions: HepG2, 72 h
Leishmania major [9] = assay: Antileishmanial activity against Leishmania major amastigotes assessed as reduction in parasite growth incubated for 48 hrs by resazurin dye based analysis; format: functional, organism-based
Leishmania major [10] = assay: Antileishmanial activity against Leishmania major assessed as reduction in parasite growth; format: functional, organism-based
J774.A1 = assay: Cytotoxicity against mouse J774.A1 cells assessed as reduction in cell viability incubated for 72 hrs by MTT assay; format: functional
Leishmania infantum [11] = assay: Antileishmanial activity against Leishmania infantum promastigote assessed as reduction in parasite growth after 72 hrs by MTT assay; format: functional, organism-based
Leishmania donovani [12] = assay: Antileishmanial activity against Leishmania donovani amastigotes infected in J774.A1 macrophage assessed as inhibition of parasite growth by luciferase assay; format: functional, organism-based
Leishmania donovani [13] = assay: Antileishmanial activity against Leishmania donovani amastigotes infected in human THP-1 cells assessed as inhibition of parasite infection incubated for 72 hrs by DAPI staining based assay; format: functional, organism-based; conditions: THP-1, 72 h
Leishmania braziliensis = assay: Antileishmanial activity against Leishmania braziliensis MHOM/BR/75/M2903 strain promastigotes assessed as reduction in cell viability incubated for 48 hrs by MTT assay; format: functional, organism-based; conditions: MHOM/BR/75/M2903, 48 h
Leishmania donovani [14] = assay: Antileishmanial activity against Leishmania donovani promastigotes assessed as inhibition of parasite growth; format: functional, organism-based
Leishmania amazonensis [15] = assay: Antileishmanial activity against Leishmania amazonensis promastigotes assessed as inhibition of parasite growth; format: functional; design: scale not given: the % may be the effect or the level left
Leishmania mexicana = assay: Antileishmanial activity against Leishmania mexicana promastigotes; format: functional, organism-based
Leishmania donovani [16] = assay: Antileishmanial activity against Leishmania donovani promastigotes assessed as parasite growth inhibition incubated for 72 hrs by alamar blue staining based assay; format: functional, organism-based
Leishmania donovani [17] = assay: Antileishmanial activity against Leishmania donovani MHOM/SD/62/1S-CL2D promastigotes assessed as reduction in parasite growth incubated for 24 hrs by resazurin dye based analysis; format: functional, organism-based
Leishmania donovani [18] = assay: Antileishmanial activity against Leishmania donovani MHOM/SD/62/1S assessed as inhibition of parasite growth by resazurin/alamar blue fluorometric assay; format: functional, organism-based
Leishmania donovani [19] = assay: Antileishmanial activity against Leishmania donovani 9515 promastigotes assessed as inhibition of parasite growth incubated for 48 hrs by resazurin dye based assay; format: functional, organism-based; conditions: Leishmania donovani, 9515, 48 h
Leishmania major [20] = assay: Antileishmanial activity against Leishmania major IR-173 promastigotes assessed as inhibition of parasite growth incubated for 48 hrs by resazurin dye based assay; format: functional, organism-based; conditions: IR-173, 48 h
Leishmania infantum [21] = assay: Antileishmanial activity against Leishmania infantum MON-1 promastigotes assessed as reduction in parasite viability measured after 48 hrs by MTT assay; format: functional, organism-based; conditions: MON-1, 48 h

SMILES: CCOC(=O)C1=C(C)NC(C)=C(C(=O)OCC)C1c1cccc(Cl)c1
pEC50 (Leishmania major [1]): 5.66
pEC50 (Leishmania major [2]): 4.98

SMILES: c1ccc(-c2nn(-c3ccccc3)cc2C2=NCCS2)cc1
IC50 (Leishmania aethiopica): 1.02 µg/mL (≈ 3.34 µM)

SMILES: NC(=O)[C@@H]1CSC(c2cn(-c3ccccc3)nc2-c2ccccc2)N1 (some centres undefined)
IC50 (Leishmania aethiopica): 1.02 µg/mL (≈ 2.91 µM)

SMILES: COC(=O)C1=C(C)NC(C)=C(C(=O)OC)C1c1cccc(Cl)c1
pEC50 (Leishmania major [1]): 5.27

pIC50 (Leishmania amazonensis [3]): 5.25
SMILES: O=C(CC[Se]c1ccnc2cc(Cl)ccc12)Nc1ccc([N+](=O)[O-])cc1

SMILES: CCCc1cc(OC)c2oc(=O)c(C(=O)c3ccc([N+](=O)[O-])cc3)cc2c1
pIC50 (Leishmania infantum [4]): 5.17
pIC50 (Leishmania infantum [5]): 4.92

pIC50 (Leishmania amazonensis [3]): 4.97
SMILES: O=C(C[Se]CC(=O)Nc1ccc([N+](=O)[O-])cc1)Nc1ccc([N+](=O)[O-])cc1

pIC50 (Leishmania donovani [6]): 6.41
SMILES: C#CCN1C(=O)CN(/N=C/c2ccc([N+](=O)[O-])o2)C1=O
pIC50 (Leishmania donovani [7]): 5.52
IC50 at 6 days [8]: 88.5 µM

pEC50 (HepG2): > 4.52
SMILES: Cc1nc2c3ccccc3c3ccccc3n2c1C(=O)NCc1cn(-c2cccc([N+](=O)[O-])c2)nn1

pEC50 (HepG2): > 4.52
SMILES: Cc1cc(C)cc(-n2cc(CNC(=O)c3c(C)nc4c5ccccc5c5ccccc5n34)nn2)c1

SMILES: CC(C)(C)c1ccc(COc2ccc(C(=O)N/N=C\c3ccc([N+](=O)[O-])o3)cc2)cc1
pIC50 (Leishmania major [9]): 6.72

SMILES: Cc1nc2ccc(Cl)cn2c1C(=O)N1CCN(Cc2cn(-c3ccc(Cl)cc3)nn2)CC1
pIC50 (Leishmania major [10]): 4.82

SMILES: CC1(C)CC(=O)c2cc(CNC(=O)C/C=C/c3ccccc3)ccc2S1
CC50 (J774.A1): 31.6 µM
pIC50 (Leishmania infantum [11]): 4.98

SMILES: CCc1ccc(-n2cc(CN3CCN(C(=O)c4c(C)nc5ccc(Cl)cn45)CC3)nn2)cc1
pIC50 (Leishmania major [10]): 4.82

pIC50 (Leishmania donovani [13]): 6.06
SMILES: O=C(c1ccccc1)N1N=C(c2ccccc2)CC1c1cn(-c2ccc(Cl)cc2)nc1-c1ccccc1 (centres undefined)
pIC50 (Leishmania donovani [12]): 7.10

SMILES: CC(C)=CC1=C(OC(=O)CCc2cn(-c3cccc(Cl)c3)nn2)C(=O)c2ccccc2C1=O
pIC50 (Leishmania braziliensis): 4.78

SMILES: Cc1cc(O)c(C(=O)Nc2ccccc2)c(=O)n1Cc1ccc(Cl)cc1
pIC50 (Leishmania donovani [14]): 4.26

SMILES: CCCn1c(C)cc(O)c(C(=O)Nc2ccc(Br)cc2)c1=O
pIC50 (Leishmania donovani [14]): 4.26

SMILES: O=C1NC(=S)N2CCCC12 (centres undefined)
Activity (Leishmania amazonensis [15]): 20%

pIC50 (Leishmania mexicana): 5.09
SMILES: COc1cc(/C=C/C(=O)c2ccccc2Cl)ccc1OCC=C(C)C

SMILES: Cc1cc(O)c(C(=O)Nc2ccc(Br)cc2)c(=O)n1C1CC1
pIC50 (Leishmania donovani [14]): 4.26

pIC50 (Leishmania mexicana): 5.09
SMILES: COc1cc(C(=O)/C=C/c2ccc([N+](=O)[O-])cc2)ccc1OCC=C(C)C

SMILES: CN(C)CCCNC(=O)c1ccc2cc(Cl)ccc2n1
pIC50 (Leishmania donovani [16]): 5.23

SMILES: CCCCCCCCCCCCCCCC(=O)CC(=O)N1CCC[C@@H]1COP(=O)([O-])OCC[N+](C)(C)C
pIC50 (Leishmania donovani [17]): 4.55

SMILES: Cc1nc2ccc(Cl)cn2c1C(=O)N1CCN(Cc2cn(-c3ccc(Br)cc3)nn2)CC1
pIC50 (Leishmania major [10]): 4.82

SMILES: Cc1cc(O)c(C(=O)Nc2ccccc2)c(=O)n1Cc1cccc(Cl)c1Cl
pIC50 (Leishmania donovani [14]): 4.26

SMILES: O=C(N/N=C/c1ccc([N+](=O)[O-])o1)c1ccc(OCc2ccc(F)cc2)cc1
pIC50 (Leishmania donovani [18]): 6.64
pIC50 (Leishmania donovani [19]): 6.07
pIC50 (Leishmania major [20]): 6.55

SMILES: CCOC(=O)c1cc2c([nH]c3ccccc32)c(-c2ccccn2)n1
pEC50 (Leishmania infantum [21]): < 4.53

SMILES: COc1ccc2nc(C(=O)NCCCN(C)C)ccc2c1
pIC50 (Leishmania donovani [16]): 5.10

SMILES: CC1(C)CC(=O)c2cc(CNC(=O)CCCCCCCCBr)ccc2S1
CC50 (J774.A1): 58 µM
pIC50 (Leishmania infantum [11]): 5.14
